# Data published in US9066945B2, “Ectoparasiticidal active substance combinations” (Bayer Intellectual Property GmbH, priority 2010, dated 2015).
# Test system: adult fleas (Ctenocephalides felis)
# Test: In vitro contact test with fleas (coated test tubes)
# Conditions: B-11 alone
# Source text: According to S. R. Colby, Weeds 15 (1967), 20-22, the expected action for a given combination of two active compounds can be calculated as follows: if • X is the kill rate, expressed in % of the untreated control, when employing active compound A at an application rate of m g/ha or in a concentration of m ppm, • Y is the kill rate, expressed in % of the untreated control, when employing active compound B at an application rate of n g/ha or in a concentration of n ppm and • E is the kill rate, expressed in % of the untreated control, when employing active compounds A and B at application rates of m and n g/ha or in a concentration of m and n ppm, • then
# In this case, the actually observed kill rate must exceed the value calculated using the above formula for the expected kill rate (E).
# In vitro contact tests with ticks and fleas
# From Table 1, representatives of important classes of active compounds (component B) were now tested in combination with pyrazine derivatives of the formula (I) according to the invention as component A against arachnids and insects. To this end, roll-necked test tubes were coated with a solution of active compound A or B or a combination of the two in acetone (2 h of swing rotation at 30 rpm in a fume cupboard). […]
substance,measurement,value
demiditraz [B-11],insecticidal activity in the contact test method,no insecticidal activity
